Experimental data published in patent US20110256557A1, “IDENTIFYING PARATHYROID HORMONE AGONISTS AND ANTAGONISTS” (DISCOVERYBIOMED, INC., priority 2008, published 2011).

Assays:
[1] = target: T1, CFP-PTH1R and YFP-LRP6 (Homo sapiens, UniProt Q03431); assay: Photobleaching-based FRET of CFP-PTH1R and YFP-LRP6 in HEK293 cells; format: cell-based
T1 construct: expressed in transfected cells; host or cells: HEK293
T1 sequence (Q03431 27-593): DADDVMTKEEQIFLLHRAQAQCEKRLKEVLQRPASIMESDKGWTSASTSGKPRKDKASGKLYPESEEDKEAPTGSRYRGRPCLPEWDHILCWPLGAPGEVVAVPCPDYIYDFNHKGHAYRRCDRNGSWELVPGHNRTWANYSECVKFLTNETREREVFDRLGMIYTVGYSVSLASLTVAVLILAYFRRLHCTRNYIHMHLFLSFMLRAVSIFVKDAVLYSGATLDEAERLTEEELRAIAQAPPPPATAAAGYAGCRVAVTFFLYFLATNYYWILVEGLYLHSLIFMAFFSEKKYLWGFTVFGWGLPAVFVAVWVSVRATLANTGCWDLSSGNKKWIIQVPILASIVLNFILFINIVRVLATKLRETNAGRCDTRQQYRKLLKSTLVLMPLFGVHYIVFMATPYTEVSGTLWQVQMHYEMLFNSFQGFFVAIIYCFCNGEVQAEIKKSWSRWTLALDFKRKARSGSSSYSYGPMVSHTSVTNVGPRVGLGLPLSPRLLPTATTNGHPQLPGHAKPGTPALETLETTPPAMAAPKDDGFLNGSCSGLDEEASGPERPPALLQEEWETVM
Description: PTH1R and BMPRII cDNAs were cloned into ECFP-N1, and LRP6 and mLRP4T100 cDNAs were cloned into EYFP—N1 (Clonetech; Palo Alto, Calif.) expression vectors. These vectors were modified by site-directed mutagenesis that prevents the self-dimerization (Bhatia et al., Proc. Natl. Acad. Sci. USA 102:15569-74 (2005)). CFP and YFP were fused at the C-termini of the receptors. Because CFP-PTH1R or CFP-BMPRII (the fluorescent FRET donors) is quenched when in the proximity of YFP-LRP6 or YFP-mLRP4T100 (the acceptors), FRET efficiency can be measured by comparing donor fluorescence pre- and post-photobleaching of the acceptor. […] HEK293 cells on coverslips in 35 mm dishes were cotransfected with 0.1 μg of each plasmid. Cells were observed using Leica TCS SP II AOBS laser-scanning confocal microscope. An excitation wavelength of 405 nm and an emission range of 416-492 nm, and an excitation wavelength of 514 nm and an emission range of 525-600 nm were used to acquire images of CFP and YFP, respectively. YFP was photobleached by using full power of the 514 nm line for 1-2 minutes. An image of CFP and YFP fluorescence after photobleaching was obtained by using the respective filter sets. Images were representatives of three experiments. The FRET efficiencies were calculated according to: FRET eff %=[(Donorpost−Donorpre)/(Donorpost)]

[2] = system: β-catenin; assay: Western blot of cytosolic β-catenin in HEK 293 cells; format: cell-based; details: HEK 293 cells; concentration- and time-dependent
Method: (§1) Cells were harvested in cavitation buffer (5 mM HEPES, pH 7.4, 3 mM MgCl2, 1 mM EGTA, 250 mM sucrose) containing protease and phosphatase inhibitors and homogenized by nitrogen cavitation (200 p.s.i., for 5 minutes) in a cell disruption bomb (Parr Instrument Co.; Moline, Ill.). The cell homogenate was centrifuged twice at 700 g for 10 minutes to pellet the nuclei. The supernatant was further centrifuged at 100,000 g (Beckman SW50.1 rotor) for 1 hour to separate the membrane and cytosol fractions, and the resulting membrane pellet was washed three times with cavitation buffer before use in the assays (Zhang et al., Biochem. J. 343:541-9 (1999)). Immunoprecipitation and Western blot analysis of cell lysates were performed as described previously (Wan et al., Am. J. Pathol. 166:1379-92 (2005)).

[3] = system: β-catenin; assay: Western blot of cytosolic β-catenin in UMR-106 cells; format: cell-based, rat
Method: as §1

[4] = system: phosphorylated LRP6 in osteoblasts; assay: Immunohistochemistry of phosphorylated LRP6 in femur sections, rats; format: in vivo, rat
Method: For the experiments in which rats or mice were administered PTH as single-dose injection, five-month-old male Sprague Dawley rats (Charles River Laboratories; Wilmington, Mass.) or two-month-old male C57BL/J6 mice (Jackson Laboratory; Bar Harbor, Me.) (6 per group) were administered a single dose of either vehicle (1 mM acetic acid in sterile PBS) or PTH (1-34) (Bachem Inc.; Torrance, Calif.) at 40 μg/kg in a volume of 100 μl. In the mouse model, mouse recombinant Wnt3a (R&D Systems; Minneapolis, Minn.) was injected at 25 μg/kg in a volume of 100 μl. All treatments were through bolus intravenous injection via the tail vein. Rats/mice were sacrificed at 0.5, 2, 8 and 24 hours after injection.
Formalin-fixed femur or tibia tissue sections of 5 μm thickness from rats or mice were processed with antigen retrieval and hydrogen peroxide treatment prior to incubation with primary monoclonal antibody specific for β-catenin (BD Biosciences; San Jose, Calif.), goat polyclonal antibody sclerostin (R&D Systems; Minneapolis, Minn.) or rabbit polyclonal phosphorylated LRP6 (Ab1490) for 1 hour at room temperature or overnight at 4° C. […] In the mouse model, numbers of total osteoblasts and numbers of β-catenin-positive osteoblasts were counted in three random high power fields in a 2-mm square, 1 mm distal to the lowest point of the growth plate in the secondary spongiosa. […]

FRET efficiency between CFP-PTH1R and YFP-LRP6 [1]: increased
FRET efficiency in control pairs YFP-LRP6/CFP-BMPRII and CFP-PTH1R/YFP-mLRP4T100 [1]: did not enhance the FRET efficiency
Substance: Parathyroid hormone [PTH]
levels of β-catenin in the cytosol [2]: enhanced
abundance of β-catenin in the cytosol [3]: enhanced
phosphorylation of LRP6 in preosteoblasts or osteoblasts at the surface of trabecular bone ([4]; single dose of PTH (1-34) 40 μg/kg, antibody specific for phosphorylated PPPSP): stimulated
amount of total LRP6 protein ([4]; single dose, same tissue): remained unchanged
